Patent publication US7238813B2, “Chemical compounds” (Smithkline Beecham Corporation, priority 2000, dated 2007)
Structures can show the parent of a compound that is named as a salt.

How the values were obtained:
[1] = target: T1, GST-TIE2 (intracellular domains of human TIE2) (Homo sapiens, UniProt Q02763); assay: TIE-2 enzyme assay (TIE2-E), LANCE method; type: biochemical; conditions: 80 uM ATP
T1 construct: made in house
Method: TIE-2Enzyme Assay (TIE2-E)
The TIE-2 enzyme assay used the LANCE method (Wallac) and GST-TIE2, baculovirus expressed recombinant constructs of the intracellular domains of human TIE2 (amino acids 762–1104, GenBank Accession # L06139) tagged by GST). […] This peptide phosphorylation was detected using the following procedure: for enzyme preactivation, GST-TIE2 was incubated for 30 mins at room temperature with 2 mM ATP, 5 mM MgCl2 and 12.5 mM DTT in 22.5 mM HEPES buffer (pH7.4). Preactivated GST-TIE2 was incubated for 30 mins at room temperature in 96 well plates with 1 μM D1-15 peptide, 80 uM ATP, 10 mM MgCl2, 0.1 mg/ml BSA and the test compound (diluted from a 10 mM stock in DMSO, final DMSO concentration was 2.4%) in 1 mM HEPES (pH7.4). The reaction was stopped by the addition of EDTA (final concentration 45 mM). Streptavidin linked-APC (allophycocyanin, Molecular Probe) and Europium-labeled anti-phosphorylated tyrosine antibody (Wallac) were then added at the final concentration of 17 μg/well and 2.1 μg/well, respectively. The APC signal was measured using an ARVO multilabel counter. (Wallac Berthold Japan). The percent inhibition of activity was calculated relative to blank control wells. The concentration of test compound that inhibits 50% of activity (IC50) was interpolated using nonlinear regression (Levernberg-Marquardt) and the equation, y=Vmax (1−x/(K+x))+Y2, where “K” was equal to the IC50. The IC50 values were converted to pIC50 values, i.e., −log IC50 in Molar concentration.

[2] = target: T2, TIE2 intracellular domain/c-fms extracellular domain (TIE2/c-fms) chimeric protein expressing mouse 3T3 cells (Homo sapiens, UniProt Q02763); assay: TIE-2 autophosphorylation assay (TIE2-C), ELISA; type: cell-based; conditions: TIE2/c-fms 3T3 cells, MCSF activation
T2 construct: a TIE2 intracellular domain/c-fms extracellular domain (TIE2/c-fms) chimeric protein; expressed in transfected cells; host or cells: mouse 3T3 cells
T2 sequence (Q02763 770-1124 limits assumed, change not shown): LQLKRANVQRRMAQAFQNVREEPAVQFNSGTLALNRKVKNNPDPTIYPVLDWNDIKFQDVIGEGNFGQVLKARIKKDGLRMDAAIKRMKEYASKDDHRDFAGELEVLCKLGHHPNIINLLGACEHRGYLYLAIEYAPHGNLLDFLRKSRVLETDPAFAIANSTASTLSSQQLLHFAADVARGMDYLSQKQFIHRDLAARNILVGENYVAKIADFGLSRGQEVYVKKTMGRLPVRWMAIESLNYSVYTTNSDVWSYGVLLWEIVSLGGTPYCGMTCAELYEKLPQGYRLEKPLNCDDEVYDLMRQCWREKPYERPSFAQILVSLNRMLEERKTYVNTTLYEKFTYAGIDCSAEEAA
Method: TIE-2 Autophosphorylation Assay (TIE2-C)
The TIE-2 autophosphorylation assay used an ELISA method and a TIE2 intracellular domain/c-fms extracellular domain (TIE2/c-fms) chimeric protein expressing mouse 3T3 cells. This assay measured the autophosphorylation level of TIE2 protein expressed in cells. The cells were cultured in high glucose DMEM (Sigma) containing 10% serum at 37° C. in a humidified 10% CO2, 90% air incubator. The test compound (diluted from a 10 mM stock in DMSO, final DMSO concentration was 0.1%) was incubated with TIE2/c-fms expressing cells for 1 hr in serum free DMEM in 96 well plates followed by the activation of TIE2/c-fms receptor using c-fms ligand, MCSF (macrophage colony stimulating factor). The culture media was removed by aspiration and the cells incubated for at least 30 mins on ice with lysis buffer containing 137 mM NaCl, 2 mM EDTA, 10% glycerol, […] sodium ortho vanadate and complete protease inhibitor cocktail (Roche) in 20 mM Tris-HCl (pH8.0). The cell extracts were transferred into Rat anti-c-fms antibody coated 96 well plates and incubated for 12 hrs at 4° C. The extracts were removed by aspiration and the plate was incubated with biotinylated anti-phosphotyrosine antibody, PT66 (Sigma) and then with HRP (Horseradish Peroxidase)-labeled streptavidin (PIERCE). The optical density at 450 nm derived from HRP catalyzed TMB was measured with an ARVO multilabel counter. (Wallac Berthold Japan). The percent inhibition of activity was calculated relative to blank control wells. The concentration of test compound that inhibits 50% of activity (IC50) was interpolated using nonlinear regression (Levernberg-Marquardt) and the equation, y=Vmax (1−x/(K+x))+Y2, where “K” was equal to the IC50. The IC50 values were converted to pIC50 values, i.e., −log IC50 in Molar concentration.

GST-VEGFR2 = target: T3, GST-VEGFR2 (Homo sapiens, UniProt P35968); assay: VEGF-R2 enzyme assay (VEGF-E), LANCE method; type: biochemical; conditions: 75 μM ATP
T3 construct: GST-VEGFR2, baculovirus expressed recombinant constructs of the intracellular domains of human TIE2 tagged by GST; made in house
T3 sequence (P35968 786-1356 limits assumed): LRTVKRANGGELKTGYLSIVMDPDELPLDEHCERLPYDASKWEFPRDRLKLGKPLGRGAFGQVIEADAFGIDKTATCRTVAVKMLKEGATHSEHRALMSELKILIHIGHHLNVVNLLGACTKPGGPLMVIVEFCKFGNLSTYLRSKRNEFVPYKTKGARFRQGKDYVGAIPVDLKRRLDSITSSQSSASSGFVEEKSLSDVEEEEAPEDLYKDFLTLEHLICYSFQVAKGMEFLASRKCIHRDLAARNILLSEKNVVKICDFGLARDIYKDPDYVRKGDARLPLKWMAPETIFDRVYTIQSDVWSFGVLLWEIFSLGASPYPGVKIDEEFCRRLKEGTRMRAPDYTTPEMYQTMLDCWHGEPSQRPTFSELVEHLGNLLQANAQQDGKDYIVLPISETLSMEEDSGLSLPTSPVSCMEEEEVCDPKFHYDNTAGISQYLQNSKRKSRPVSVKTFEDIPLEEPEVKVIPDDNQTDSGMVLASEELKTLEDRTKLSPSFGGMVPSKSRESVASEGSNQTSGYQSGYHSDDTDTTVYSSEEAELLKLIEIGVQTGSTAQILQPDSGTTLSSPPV
Method: VEGF-R2 Enzyme Assay (VEGF-E)
The VEGF enzyme assay used the LANCE method (Wallac) and GST-VEGFR2, baculovirus expressed recombinant constructs of the intracellular domains of human […] tagged by GST. […] The reaction was stopped by the addition of EDTA (final concentration 50 mM). Streptavidin linked-APC (allophycocyanin, Molecular Probe) and Europium-labeled anti-phosphorylated tyrosine antibody (Wallac) were then added at the final concentration of 15 nM and 1 nM, respectively. The APC signal was measured using an ARVO multilabel counter (Wallac Berthold, Japan). The percent inhibition of activity was calculated relative to blank control wells. The concentration of test compound that inhibits 50% of activity (IC50) was interpolated using nonlinear regression (Levernberg-Marquardt) and the equation, y=Vmax (1−x/(K+x))+Y2, where “K” was equal to the IC50. The IC50 values were converted to pIC50 values, i.e., −log IC50 in Molar concentration.

T1 sequence (Q02763 762-1104): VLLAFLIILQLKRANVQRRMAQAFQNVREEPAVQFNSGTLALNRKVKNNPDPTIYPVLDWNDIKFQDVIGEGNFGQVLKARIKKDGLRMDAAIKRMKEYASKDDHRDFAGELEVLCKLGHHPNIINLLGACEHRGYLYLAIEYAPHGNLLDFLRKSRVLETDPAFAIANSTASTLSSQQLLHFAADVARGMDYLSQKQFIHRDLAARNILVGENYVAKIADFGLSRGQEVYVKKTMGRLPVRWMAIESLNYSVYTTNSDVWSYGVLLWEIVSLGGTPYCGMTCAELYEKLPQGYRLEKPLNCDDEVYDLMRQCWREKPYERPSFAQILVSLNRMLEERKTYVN

Compound | IC50 [1] [nM] | IC50 [2] [nM] | IC50 (GST-VEGFR2) [nM]
COC(=O)Nc1nc2c(Br)cc(Oc3ccc(NC(=O)Nc4cc(C(F)(F)F)ccc4F)cc3)cc2s1.Cl [Example 65, Methyl N-(4-bromo-6-(4-((6-fluoro-3-(trifluoromethylphenyl)aminocarbonylamino)phenoxy)benzthiazol-2-yl)carbamate hydrochloride] | < 100 | < 100 | < 100
O=C(Nc1ccc(Oc2ccc3nc(NC(=O)c4c[nH]c5ccccc45)[nH]c3c2)cc1)Nc1cc(C(F)(F)F)ccc1F [Example 95, N-(5-(4-((2-Fluoro-5-(trifluoromethyl)phenyl)aminocarbonylamino)phenoxy)-1H-benzimidazol-2-yl)(1H-indole-3-carboxamide)] | < 100 | 100 to 1000 | < 100
COC(=O)Nc1nc2ncc(Oc3ccc(NC(=O)Nc4cc(C(F)(F)F)ccc4Cl)cc3)cc2[nH]1 [Example 73, Methyl N-(6-(4-((2-chloro-5-(trifluoromethyl)phenyl)aminocarbonylamino)phenoxy)-3,4-diaza-1H-indole-2-yl)carbamate dihydrochloride] | 100 to 1000 | 100 to 1000 | < 100
CCc1cccc(NC(=O)Nc2ccc(Oc3ccc4[nH]c(NC(=O)OC)nc4c3)nc2)c1 [Example 39, Methyl N-(5-(5-((3-ethylphenyl)aminocarbonylamino)-2-pyridyloxy)-1H-benzimidazol-2-yl)carbamate] | 100 to 1000 | 100 to 1000 | 100 to 1000
O=C(Nc1ccc(Oc2ccc3nc(NC(=O)c4ccc(-n5cccc5)cc4)[nH]c3c2)cc1)Nc1cc(C(F)(F)F)ccc1F [Example 90, N-(5-(4-((2-Fluoro-5-(trifluoromethyl)phenyl)aminocarbonylamino)phenoxy)-1H-benzimidazol-2-yl)-4-(pyrrol-1-yl)benzamide] | < 100 | 1000 to 10000 | < 100
CC(=O)Nc1nc2ccc(Oc3ccc(NC(=O)Nc4cc(C(F)(F)F)ccc4F)nc3)cc2n1Cc1ccccc1 [Example 110] | < 100 | 100 to 1000 | 100 to 1000
COC(=O)Nc1nc2cc([S+]([O-])c3ccc(NC(=O)Nc4cc(Cl)ccc4Cl)cc3)ccc2[nH]1 (centres unmarked) [Example 79, Methyl N-(5-(4-((2,5-dichlorophenyl)aminocarbonylamino)phenylsulfinyl)-1H-benzimidazol-2-yl)carbamate] | 100 to 1000 | 100 to 1000 | –
CCc1cccc(NC(=O)Nc2cccc(Oc3ccc4[nH]c(NC(=O)OC)nc4c3)c2)c1 [Example 16, Methyl N-(5-(3-((3-ethylphenyl)aminocarbonylamino)phenoxy)-1H-benzimidazol-2-yl)carbamate] | < 100 | < 100 | < 100
COC(=O)Nc1nc2ccc(Oc3ccc(NC(=S)Nc4cccc(C(F)(F)F)c4)cc3)cc2[nH]1 [Example 186, Methyl N-(5-(4-((3-(trifluoromethyl)phenyl)aminothiocarbonylamino)phenoxy)-1H-benzimidazol-2-yl)carbamate] | 1000 to 10000 | 100 to 1000 | –
COC(=O)Nc1nc2ccc(Oc3cccc(NC(=O)Nc4cc(C(F)(F)F)ccc4Cl)c3)cc2[nH]1 [Example 52, Methyl N-(5-(3-((2-chloro-5-(trifluoromethyl)phenyl)aminocarbonylamino)phenoxy)-1H-benzimidazol-2-yl)carbamate hydrochloride] | < 100 | 100 to 1000 | < 100
COC(=O)Nc1nc2cc(Oc3ccc(NC(=S)Nc4cccc(Cl)c4)cc3)ccc2[nH]1 [Example 184, Methyl N-(5-(4-((3-chlorophenyl)aminothiocarbonylamino)phenoxy)-1H-benzimidazol-2-yl)carbamate] | 1000 to 10000 | 1000 to 10000 | < 100
COC(=O)Nc1nc2cc(Oc3ccc(NC(=O)Nc4cc(Cl)ccc4Cl)cn3)ccc2[nH]1 [Example 112, Methyl N-(5-(5-((2,5-dichlorophenyl)aminocarbonylamino)-2-pyridyloxy)-1H-benzimidazol-2-yl)carbamate dihydrochloride] | 100 to 1000 | 100 to 1000 | 100 to 1000
COC(=O)Nc1nc2cc(Sc3ccc(NC(=O)Nc4cc(Cl)ccc4Cl)cc3)ccc2[nH]1 [Example 57, Methyl N-(5-(4-((2,5-dichlorophenyl)aminocarbonylamino)phenylthio)-1H-benzimidazol-2-yl)carbamate] | < 100 | 100 to 1000 | –

Continued, values first:

IC50 [1] [nM] | IC50 [2] [nM] | IC50 (GST-VEGFR2) [nM] | Compound
100 to 1000 | 1000 to 10000 | < 100 | CN(C)CCNc1nc2cc(Oc3ccc(NC(=O)Nc4cc(C(F)(F)F)ccc4F)cc3)ccc2[nH]1 [Example 105, 2-(2-(Dimethylamino)ethylamino)-5-(4-((2-fluoro-5-(trifluoromethyl)phenyl)aminocarbonylamino)phenoxy)-1H-benzimidazole]
< 100 | < 100 | < 100 | O=C(Nc1ccc(Oc2ccc3nc(NC(=O)c4cccs4)[nH]c3c2)cc1)Nc1cc(C(F)(F)F)ccc1F [Example 100, N-(5-(4-((2-Fluoro-5-(trifluoromethyl)phenyl)aminocarbonylamino)phenoxy)-1H-benzimidazol-2-yl)-2-thiophenecarboxamide]
< 100 | 100 to 1000 | – | O=C(Nc1ccc(Oc2ccc3[nH]c(NC(=O)c4ccccc4)nc3c2)cc1)Nc1cc(C(F)(F)F)ccc1F [Example 99, N-(5-(4-((2-Fluoro-5-(trifluoromethyl)phenyl)aminocarbonylamino)phenoxy)-1H-benzimidazol-2-yl)benzamide]
100 to 1000 | 100 to 1000 | < 100 | CN1CCN(CCNc2nc3cc(Oc4ccc(NC(=O)Nc5cc(C(F)(F)F)ccc5F)cc4)ccc3[nH]2)CC1 [Example 104, 2-(2-(4-Methyl-1-piperazino)ethylamino)-5-(4-((2-fluoro-5-(trifluoromethyl)phenyl)aminocarbonylamino)phenoxy)-1H-benzimidazole]
100 to 1000 | 100 to 1000 | < 100 | CN1CCN(CCCNc2nc3ccc(Oc4ccc(NC(=O)Nc5cc(C(F)(F)F)ccc5F)cc4)cc3[nH]2)CC1 [Example 106, 2-(3-(4-methyl-1-piperazino)propylamino)-5-(4-((2-fluoro-5-(trifluoromethyl)phenyl)aminocarbonylamino)phenoxy)-1H-benzimidazole]
< 100 | 100 to 1000 | 100 to 1000 | COC(=O)Nc1nc2ccc(Oc3ccc(NC(=O)Nc4cc(C(F)(F)F)ccc4F)c[n+]3[O-])cc2[nH]1 [Example 107, Methyl N-(5-(5-((2-fluoro-5-(trifluoromethyl)phenyl)aminocarbonylamino)-1-oxo-2-pyridyloxy)-1H-benzimidazol-2-yl)carbamate]
